For test [1], the target named is T1, biotinylated truncated STAT6 (123-632)-avi (Homo sapiens, UniProt P42226).
T1 construct: 0.15 nM biotinylated truncated STAT6 (123-632)-avi purified from E. coli; made in house; host or cells: E. coli
T1 sequence (P42226 123-632 limits assumed): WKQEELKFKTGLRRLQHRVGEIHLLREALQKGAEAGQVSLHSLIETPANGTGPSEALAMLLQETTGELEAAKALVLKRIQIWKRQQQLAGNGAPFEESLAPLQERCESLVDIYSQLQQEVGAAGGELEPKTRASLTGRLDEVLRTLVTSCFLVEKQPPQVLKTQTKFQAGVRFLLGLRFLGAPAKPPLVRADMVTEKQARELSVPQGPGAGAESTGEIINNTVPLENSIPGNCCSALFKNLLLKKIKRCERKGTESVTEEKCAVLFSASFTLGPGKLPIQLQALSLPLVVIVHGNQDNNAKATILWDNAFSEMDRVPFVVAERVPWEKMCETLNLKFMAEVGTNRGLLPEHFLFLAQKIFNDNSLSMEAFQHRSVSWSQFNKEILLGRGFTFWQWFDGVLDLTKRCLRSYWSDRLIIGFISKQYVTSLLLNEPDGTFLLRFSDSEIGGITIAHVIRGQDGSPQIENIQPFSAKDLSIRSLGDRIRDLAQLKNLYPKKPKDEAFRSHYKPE
The test can be described thus: STAT6 HTRF binding assay. As to conditions: 0.15 nM STAT6 (123-632)-avi, 20 nM fluorescein-labeled probe, 30 minutes at room temperature. How it is done:
HTRF binding assays were perforned using 0.15 nM biotinylated truncated STAT6 (123-632)-avi purified from E. coli, 1× Streptavidin-terbium (CisBio) prepared by mixing SA-Tb in PPI detection buffer (CisBio), 20 nM proprietary fluorescein-labeled probe, and test compounds in assay buffer consisting of 50 mM HEPES-Na pH 7.5, 100 mM NaCl, 1 mM EDTA, 2 mM DTT, 0.1% Tween-20 with a final volume of 20 uL. Compound stocks were dissolved at 10 mM in 100% DMSO and 11 point titration with 3 fold serial dilution was performed in white, opaque 384 well microplates. Reaction plates were incubated at room temperature for 30 minutes. Plates were centrifuged at low rpm for 5 mins, and the ratio of fluorescence intensities were measured at emission wavelengths for fluorescein acceptor (520 nm) and terbium donor (495 nm) on Envision Plate reader. % Inhibition was calculated from the 520/495 ratio generated by using proprietary positive control compound for 100% inhibition and DMSO only reactions for 0% inhibition. Data was processed and dose response curves were generated using GraphPad Prism to determine the concentration required for inhibiting 50% of the HTRF signal (IC50).
The letter codes for IC50 (μM) include: A (<0.1 μM); B (0.1-1 μM); C (>1-10 μM); D (>10-100 μM); E (>100 μM); and F (not tested).
In general terms: Time-resolved FRET reads energy transfer from a long-lived donor to a nearby acceptor.

Another test has as its target T2, STAT6 (Homo sapiens, UniProt P42226).
T2 construct: endogenous in cells; host or cells: A549 (STAT6-HiBiT), endogenous locus tagged
T2 sequence (P42226 1-847): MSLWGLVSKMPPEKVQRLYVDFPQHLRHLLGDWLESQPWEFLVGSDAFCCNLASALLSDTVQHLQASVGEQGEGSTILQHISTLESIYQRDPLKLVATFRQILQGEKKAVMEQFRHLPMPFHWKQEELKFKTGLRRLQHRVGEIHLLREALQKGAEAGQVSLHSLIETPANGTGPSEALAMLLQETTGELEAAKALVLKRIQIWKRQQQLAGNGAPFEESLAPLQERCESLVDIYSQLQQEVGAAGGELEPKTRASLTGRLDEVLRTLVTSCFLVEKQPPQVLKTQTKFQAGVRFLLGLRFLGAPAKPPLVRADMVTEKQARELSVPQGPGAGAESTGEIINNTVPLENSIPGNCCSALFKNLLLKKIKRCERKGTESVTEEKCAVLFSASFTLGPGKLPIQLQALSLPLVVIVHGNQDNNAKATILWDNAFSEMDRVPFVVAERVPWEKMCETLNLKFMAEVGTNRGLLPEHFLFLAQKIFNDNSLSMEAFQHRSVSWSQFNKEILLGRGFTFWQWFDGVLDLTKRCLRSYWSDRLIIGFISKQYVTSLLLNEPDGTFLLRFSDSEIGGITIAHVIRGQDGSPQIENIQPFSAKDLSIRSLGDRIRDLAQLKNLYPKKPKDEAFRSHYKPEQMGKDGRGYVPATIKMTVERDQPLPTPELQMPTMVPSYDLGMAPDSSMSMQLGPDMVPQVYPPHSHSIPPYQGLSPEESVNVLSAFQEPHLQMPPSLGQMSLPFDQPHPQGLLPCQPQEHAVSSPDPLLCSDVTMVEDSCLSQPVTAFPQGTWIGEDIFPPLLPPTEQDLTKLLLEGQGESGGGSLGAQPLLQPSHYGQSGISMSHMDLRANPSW
Nature of the test: STAT6 MSD degradation in A549 cells. It is filed as cell-based. As to conditions: 24 h. The method, then: Degradation of STAT6 in cells was quantitatively measured using Meso Scale Discovery (MSD) technology. A549 cells were seeded in 96-well plates with a density of 1.5×10e4 to 5×10e5 cells per well in 100 μl fresh media. Compounds were then added to the assay plates with a final top concentration of up to 10 uM in a 1:3 dilution series with total of 9 doses. The assay plates were then incubated for 4 to 24 hours at 37° C. under 5% CO2. The assay plates were then centrifuged for 5 minutes and the cell pellets were treated with 100 μl/well RIPA lysis buffer (Boston Bioproducts, BP-115D) with protease and phosphatase inhibitors (Roche, 05892791001 and 04906837001). To prepare the MSD assay plates (MSD, L15XA), the plates were coated with the capture antibody (Abnova, H00006778) in PBS, at 40 μl/well. The plates were then incubated overnight at 4° C., washed 1 time with […] TBST buffer (Cell Signaling Technology, #9997S) and blocked with 150 μl/well blocking buffer (MSD, R93BA-4). Cell lysates were then added to MSD assay plates and the plates were incubated at room temperature for 1 hour. The plates were then washed 3 times with 150 μl/well TBST buffer and 25 μl/well primary detection antibody (Cell Signaling Technology, #5397S). The assay plates were then incubated at room temperature for 1 hour, washed 3 times with 150 μl/well TBST buffer, and 25 μl/well secondary detection antibody, SULFO-TAG anti-rabbit antibody (MSD, R32AB-1) were added. The assay plates were then incubated at room temperature for 1 hour, washed 3 times with 150 μl/well TBST buffer, and 150 μl/well MSD reading buffer (MSD, R92TC-2) were added. The plates were then analyzed by an MSD reader. The data was analyzed by GraphPad Prism and the dose dependent STAT6 degradation was fit using the four-parameter inhibitor vs. response nonlinear regression.
The letter codes for DC50 (nM) include: A (<1 nM); B (1-10 nM); C (>10-100 nM); D (>100-1000 nM); E (>1000 nM); and F (not tested). The letter codes for Dmax (%) include: A (>90%); B (>70-90%); C (>50-70%); D (<50%); and E (not tested).

What is called IC50 is the concentration that gives 50% inhibition. By DC50 is commonly meant the concentration giving 50% degradation. Broadly, the Dmax is the largest share of the target that was removed. For `CN(C)C(=O)c1cc2ccc(C3=CCCN(C(=O)C4Cc5c(cccc5OCCOCCOCCOCCc5cccc6c5n(C)c(=O)n6C5CCC(=O)NC5=O)CN4C=O)C3)cc2[nH]1` (stereo not drawn) [I-98], the IC50 in test [1] was in the range of 10 to 100 µM. Further, at STAT6, the 50% degradation concentration (DC50) was > 1000 nM and the maximal degradation (Dmax) was < 50%.

The values are drawn from US20260209206A1, “STAT6 DEGRADERS AND USES THEREOF” (Kymera Therapeutics, Inc., priority 2023, published 2026).
